Publication PMC11577759, “The structure of lipopeptides impacts their antiviral activity and mode of action against SARS-CoV-2 in vitro” (Applied and Environmental Microbiology, 2024)
Values after ≈ are worked out from the molar mass of the structure shown. Read-outs that look alike come from different tables or passages of the source. Positions of bridges follow the written chain, without caps; N, C: chain ends. Non-standard residues stand in square brackets, D forms with d. Residues, ends and D or L forms follow the SMILES beside them. *: point of attachment. d(aThr) = C[C@@H](O)[C@@H](N)C(=O)O; X2 = CCCCCCCCCCCC(O)CC(=O)*

Legend:
[1] = tested on: SARS-CoV-2; assay: Replication / antiviral assay, viral RNA in supernatant by RT-qPCR; format: cell-based; conditions: for EC50 / EC50 (half maximal effective concentration): mean (standard deviation); for EC50: read-out: EC50 (half maximal effective concentration)
[2] = Cytotoxicity, CyQUANT XTT cell viability assay; format: cell-based, Chlorocebus sp.; conditions: Chlorocebus sp. (African green monkey), Vero E6 cells (kidney epithelial cells); Vero E6 cells, 72 h, XTT; mean (standard deviation); fengycin and caspofungin determined at higher concentrations in a subsequent experiment; read-out: IC50 (half maximal inhibitory concentration, cytotoxicity)
Experimental: (§1) Chlorocebus sp. kidney epithelial cells (Vero E6; ATCC VERO C1008) were cultured in Dulbecco’s Modified Eagle medium (DMEM) High Glucose w/ Stable Glutamine w/ Sodium Pyruvate (VWR, USA) supplemented with 2% (vol/vol) of decomplemented fetal bovine serum (FBS, Biowest, France) and 1% (vol/vol) Penicillin-Streptomycin (VWR, USA). The cells were grown at 37°C in a humidified 5% CO2 atmosphere. Cells were routinely passaged when they reached 100% confluence and were passaged until passage 15.
(§2) The cytotoxic activity of the lipopeptides was assessed using a CyQUANT XTT Cell Viability Assay (Thermo Fisher Scientific) according to the manufacturer’s instructions. […] The cells were then incubated for 72 h at 37°C. The kit was then used following the manufacturer’s instructions, and the plates were read at 450 nm and 660 nm using a Multiskan GO Microplate Spectrophotometer (Thermo Fisher Scientific). The percentage of viable cells was calculated as (AT450 − AT660 − AB450) / (AC450 − AC660) × 100%, where AT450, AT660, AB450, AC450, and AC660 represent the absorbance of the tested well at 450 nm, of the tested well at 660 nm, of the blank (only medium) at 450 nm, of the control cells at 450 nm, and of the control cells at 660 nm, respectively. One hundred percent viability corresponds to the viability of uninfected cells. DMSO concentrations ranging from 0.5% (vol/vol) to 0.001% (vol/vol) were used as a negative control for the assay. Every sample was tested in triplicate.

[3] = tested on: Vero cells; set-up: method as in earlier work; conditions: ref 38 (Shekunov et al.); cited from earlier work
[4] = tested on: Vero E6 cells; assay: Cytotoxicity, CyQUANT XTT cell viability assay; format: cell-based, Chlorocebus sp.; conditions: for Cytotoxicity: concentrations up to 100 µg/mL, Vero E6, 72 h; for IC50 (half maximal inhibitory concentration, cytotoxicity): Vero E6 cells, 72 h, XTT, mean (standard deviation), fengycin and caspofungin determined at higher concentrations in a subsequent experiment
Experimental: as §1, §2

[5] = 100 µg/mL, 72 h pi, compared to untreated infected cells
[6] = SARS-CoV-2 MOI 0.01, Vero E6, viral RNA at 72 h pi by RT-qPCR

Compound	Maximal RNA reduction at 100 µg/mL [1, 5]	Cytotoxicity [4]	EC50 (half maximal effective concentration) [1, 6]	IC50 (half maximal inhibitory concentration, cytotoxicity) [4]	also measured
CCC(=O)CCCCC[C@@H]1NC(=O)[C@H]2CCCCN2C(=O)[C@H]([C@@H](C)CC)NC(=O)[C@H](Cc2cn(OC)c3ccccc23)NC1=O [Apicidin]	3.7-log				EC50 ([1]; Severe acute respiratory syndrome coronavirus 2, Vero C1008, SARS-CoV-2 MOI 0.01, Vero E6, viral RNA at 72 h pi by RT-qPCR): 25.2 µg/mL (≈ 40.4 µM); IC50 at 72 h [2]: 0.7 µg/mL (≈ 1.12 µM)
CCCCCCCCCC(=O)N[C@@H](Cc1c[nH]c2ccccc12)C(=O)N[C@H](CC(N)=O)C(=O)N[C@@H](CC(=O)O)C(=O)N[C@@H]1C(=O)NCC(=O)N[C@@H](CCCN)C(=O)N[C@@H](CC(=O)O)C(=O)N[C@H](C)C(=O)N[C@@H](CC(=O)O)C(=O)NCC(=O)N[C@H](CO)C(=O)N[C@@H]([C@H](C)CC(=O)O)C(=O)N[C@@H](CC(=O)c2ccccc2N)C(=O)O[C@@H]1C [Daptomycin, reference compound]		did not cause any cytotoxicity			Maximal RNA reduction at 100 µg/mL [1]: 0.3-log; EC50 ([1]; Severe acute respiratory syndrome coronavirus 2, Vero C1008, 72 h, […]): > 100 µg/mL; Maximal RNA reduction at 100 µg/mL ([1]; listed as daptomycin): no effect; IC50 [3]: 0.7 µg/mL (≈ 0.432 µM); IC50 at 72 h [2]: > 100 µg/mL
CCCCCCCCCCCC(O)CC(=O)N[C@@H](CC(C)C)C(=O)N[C@H](CCC(=O)O)C(=O)N[C@H]1C(=O)N[C@H](C(C)C)C(=O)N[C@@H](CC(C)C)C(=O)N[C@H](CO)C(=O)N[C@@H](CC(C)C)C(=O)N[C@@H](CC(C)C)C(=O)N[C@H](CO)C(=O)N[C@@H](C(C)C)C(=O)O[C@@H]1C (some centres unmarked) [Orfamide B] (X2-L[dE][d(aThr)][dV]L[dS]LL[dS]V; ester 3-C)	6.3-log		12.8 (4.1) µg/mL	14.6 (0.4) µg/mL	Maximal RNA reduction at 100 µg/mL ([1]; 100 µg/mL, 72 h pi, compared to untreated infected cells, listed as orfamide B): 6.3 log
Colistin (polymyxin E) [reference compound]	0.2-log	did not cause any cytotoxicity	>100.0 µg/mL	>100.0 µg/mL	Maximal RNA reduction at 100 µg/mL ([1]; 100 µg/mL, 72 h pi, compared to untreated infected cells, listed as colistin): no activity up to 100 µg/mL
Fusaricidin	3.3-log		51.2 (13.6) µg/mL	24.6 (1.1) µg/mL	
Lichenysin	6.3-log		25.9 (3.2) µg/mL	28.1 (1.4) µg/mL	Maximal RNA reduction at 100 µg/mL ([1]; 100 µg/mL, 72 h pi, compared to untreated infected cells, listed as lichenysin): 6.3 log
Polymyxin B [reference compound]	0.3-log	did not cause any cytotoxicity	>100.0 µg/mL	>100.0 µg/mL	Maximal RNA reduction at 100 µg/mL ([1]; 100 µg/mL, 72 h pi, compared to untreated infected cells, listed as polymyxin B): no activity up to 100 µg/mL; IC50 [3]: 1.1 µg/mL
Pumilacidin	6.3-log		47.8 (0.4) µg/mL	36.0 (3.5) µg/mL	Maximal RNA reduction at 100 µg/mL ([1]; 100 µg/mL, 72 h pi, compared to untreated infected cells, listed as pumilacidin): 6.3 log
